Counter-ions that a name gives are not always drawn.
Tests used:
Assay type in all cases: in vivo
rats = test: Turning rat test (rotation in rats with unilateral 6-OHDA lesion of the medial forebrain bundle); conditions: for minimal effective dose: Rattus norvegicus, ip, 1 h, i.p., active = more than 100 turns/hour, 5 rats per dose, read-out: Turning rat test minimum active dosage
Procedure: Female rats weighing 150 g are anaesthetised with pentobarbital (50 mg kg^-1 i.p.) and fixed in a stereotaxic apparatus (David Kopf). A unilateral (right side) injection into the MFB (medial forebrain bundle) of 6-OHDA (6-hydroxy-dopamine), 3 μg as base, dissolved in 4 μl of Ringer solution containing 0.02% ascorbic acid, is carried out through a stainless-steel cannula (diameter 0.3 mm) connected to a microsyringe. The liquid is injected at a speed of 1 μl min^-1 by means of a high precision infusion pump. In order to reach the MFB (medial forebrain bundle), the following coordinates are used: A=+3.8 mm, L (right)=0.9 mm, V=-3 mm according to the Atlas of Konig and Klippel.
After 3 weeks recovery period, the operated rats are injected with apomorphine, 1 mg kg^1- i.p. Those animals showing a regular contralateral (i.e., away from the lesioned side) turning, recorded automatically during 1 hour in a rotometer, are selected for further experiments. At least one week is allowed between each injection of screening compounds.
Drugs which induce rotation are dopamine receptor agonists. If the turning is contralateral (i.e., away from the lesioned side) the drugs are classified as "apomorphine-like", which indicates a direct dopamine-receptor stimulation (postsynaptic). The denervated striatum is more sensitive to dopamine receptor agonistes than the intact one. Agonists therefore affect the denervated striatum more than the intact one. This inbalance results in contralateral turning (rotation).
If the rotation is ipsilateral (i.e., towards the lesioned side), the drugs are classified as "amphetamine-like", which means that they release and/or block the reuptake of dopamine (presynaptic) from nerve terminals on the intact side, whereas they have little if any effect on the striatum with denervated dopamine neurons. The result of this inbalance is an ipsilateral turning.
The total number of ipsilateral or contralateral turns (full rotation around the vertical axes of the body) made by each rat, is automatically recorded over the time (usually 1 hour). 5 rats are injected for each dose and the mean of total turns per hour is determined.
A compound is said active, if it produces more than 100 turns/hour. If a drug induces rotation, but less than 100 turns/hour, it is indicated as slightly active. […] The results are expressed as: […]
Minimal effective dose--if the drug is active

mouse = test: LD50 (mouse), acute toxicity; conditions: in words
[1] = LD50 (mouse), acute toxicity; conditions: in vivo, mouse

Row | SMILES | minimal effective dose (rats) | strength of action compared with d-amphetamine and d-methamphetamine (rats; in words, versus d-amphetamine and d-methamphetamine, see Table I) | action compared with nomifensin (rats; in words, versus nomifensin, see Table I) | LD50 compared with d-amphetamine and d-methamphetamine (mouse; versus d-amphetamine and d-methamphetamine) | LD50 compared with nomifensin (mouse; versus nomifensin) | LD50 ([1]; po) | LD50 ([1]; iv) | LD50 ([1]; sc)
1 | CCn1cc(C(=O)O)c(=O)cc1-c1ccc2ccccc2c1 [1-ethyl-1,4-dihydro-6-(2-naphthyl)-4-oxonicotinic acid] | 1 mg/kg | about the same strength of action | substantially superior to nomifensin | substantially lower LD50 | about the same LD50 | 170 mg/kg |  | 
2 | CN1Cc2c(N)cccc2C(c2ccccc2)C1 (stereo not drawn) [Nomifensin, 8-amino-1,2,3,4-tetrahydro-2-methyl-4-phenylisoquinoline] | 3 mg/kg |  |  |  |  | 300 to 600 mg/kg |  | 
3 | C[C@H](N)Cc1ccccc1 [d-Amphetamine . 1/2 H2 SO4] | 1 mg/kg |  |  |  |  | 35 mg/kg | 14 mg/kg | 22 mg/kg
4 | CN[C@@H](C)Cc1ccccc1 [d-Methamphetamine . HCl] | 1 mg/kg |  |  |  |  |  | 9.5 mg/kg | 14 mg/kg

From patent US4314063A, “1-Ethyl-1,4,5,6-tetrahydro-6-(2-naphthyl)-4-oxo-nicotinic acid and lower alkyl esters thereof” (Hoffmann-La Roche Inc., priority 1981, dated 1982)
